From publication PMC11149917, “Translational and Therapeutic Evaluation of RAS-GTP Inhibition by RMC-6236 in RAS-Driven Cancers” (Cancer Discovery, 2024)

Test system: PRISM panel of 845 cancer cell lines
Test: PRISM assay
Format: cell-based, human
Experimental: The PRISM cell set comprised 845 cell lines representing more than 45 lineages (see Supplementary Table S1 for cell line information), which largely overlapped with the Cancer Cell Line Encyclopedia; https://portals.broadinstitute.org/ccle). Cell lines were grown in RPMI without phenol red and supplemented with 10% or 20% FBS for adherent and suspended lines, respectively. Parental cell lines were stably infected with a unique 24-nucleotide DNA barcode via lentiviral transduction and blasticidin selection. After selection, barcoded cell lines were expanded and subjected to quality control (Mycoplasma contamination test, an SNP test for confirming cell line identity, and barcode ID confirmation). Approved cell lines were then pooled (20–25 cell lines per pool) based on doubling time similarity and frozen in assay-ready vials.
RMC-6236 was added to 384-well plates at 8-point concentration with 3-fold dilutions in triplicate. These assay-ready plates were then seeded with the thawed cell line pools. Adherent cell pools were plated at 1,250 cells per well, whereas suspension and mixed adherent/suspension pools were plated at 2,000 cells per well. Treated cells were incubated for 5 days, and then lysed. Lysate plates were collapsed together prior to barcode amplification and detection.
Each cell line's unique barcode is located in the 3′UTR of the blasticidin-resistance gene and therefore is expressed as mRNA. Total mRNA was captured using magnetic particles that recognize polyA sequences. Captured mRNA was reverse-transcribed into cDNA and then the sequence containing the unique PRISM barcode was amplified using PCR. Finally, Luminex beads that recognize the specific barcode sequences in the cell set were hybridized to the PCR products and detected using a Luminex scanner which reports the signal as a median fluorescent intensity (MFI).
• Each detection well contained 10 control barcodes in increasing abundances as spike-in controls. For each plate, we first create a reference profile by calculating the median of the log2(MFI) values across negative control wells for each of these spiked-in barcodes. • For each well, a monotonic smooth p-spline was fitted to map the spike-in control levels to the reference profile. Next, we transform the log2(MFI) for each cell barcode using the fitted spline to allow well-to-well comparisons by correcting for amplification and detection artifacts. • Next, the separability between negative and positive control treatments was assessed. In particular, we calculated the error rate of the optimum simple threshold classifier between the control samples for each cell line and plate combination. The error rate is a measure of the overlap of the two control sets and was defined as error = (FP + FN)/n, where FP is false positives, FN is false negatives, and n is the total number of controls. A threshold was set between the distributions of positive and negative control log2(MFI) values (with everything below the threshold said to be positive and above said to be negative) such that this value is minimized. Additionally, we also calculated the dynamic range of each cell line. […] Additionally, any cell line that had less than 2 passing replicates was also omitted for the sake of reproducibility. Finally, we computed viability by normalizing with respect to the median negative control for each plate.
For every gene with nonsilent mutations in at least four cell lines, we compared the AUC values between cells with and without those mutations using a t test. This analysis was carried out for (i) the full data set; (ii) excluding cell lines with nonsilent KRAS mutations; and (iii) excluding cell lines that have either KRAS or NRAS nonsilent mutations.

CCn1c(-c2cc(N3CCN(C)CC3)cnc2[C@H](C)OC)c2c3cc(ccc31)-c1csc(n1)C[C@H](NC(=O)[C@H]1C[C@@H]1C)C(=O)N1CCC[C@H](N1)C(=O)OCC(C)(C)C2 [RMC-6236]
RMC-6236: RevMed PRISM: AUC (22RV1_PROSTATE): 0.9065
RMC-6236: RevMed PRISM: AUC (A427_LUNG, KRAS p.G12D): 0.4282
RMC-6236: RevMed PRISM: AUC (A704_KIDNEY): 1
RMC-6236: RevMed PRISM: AUC (A1207_CENTRAL_NERVOUS_SYSTEM): 1
RMC-6236: RevMed PRISM: AUC (BICR16_UPPER_AERODIGESTIVE_TRACT): 0.548
RMC-6236: RevMed PRISM: AUC (CAL54_KIDNEY): 1
RMC-6236: RevMed PRISM: AUC (CAL72_BONE): 0.8456
RMC-6236: RevMed PRISM: AUC (CAL120_BREAST): 0.7982
RMC-6236: RevMed PRISM: AUC (CHLA15_AUTONOMIC_GANGLIA): 0.6747
RMC-6236: RevMed PRISM: AUC (COLO678_LARGE_INTESTINE, KRAS p.G12D): 0.7109
RMC-6236: RevMed PRISM: AUC (COLO679_SKIN): 0.8171
RMC-6236: RevMed PRISM: AUC (CORL23_LUNG, KRAS p.G12V): 0.4445
RMC-6236: RevMed PRISM: AUC (DETROIT562_UPPER_AERODIGESTIVE_TRACT): 0.5051
RMC-6236: RevMed PRISM: AUC (DMS53_LUNG): 0.9861
RMC-6236: RevMed PRISM: AUC (EBC1_LUNG): 0.478
RMC-6236: RevMed PRISM: AUC (ECGI10_OESOPHAGUS): 0.6603
RMC-6236: RevMed PRISM: AUC (EW8_BONE): 0.6608
RMC-6236: RevMed PRISM: AUC (EWS502_BONE): 0.706
RMC-6236: RevMed PRISM: AUC (FADU_UPPER_AERODIGESTIVE_TRACT): 0.6934
RMC-6236: RevMed PRISM: AUC (G292CLONEA141B1_BONE): 0.9519
RMC-6236: RevMed PRISM: AUC (GB2_BILIARY_TRACT): 0.6327
RMC-6236: RevMed PRISM: AUC (H357_UPPER_AERODIGESTIVE_TRACT, HRAS p.G13S): 0.44
RMC-6236: RevMed PRISM: AUC (HARA_LUNG): 0.583
RMC-6236: RevMed PRISM: AUC (HCC827_LUNG): 0.8007
RMC-6236: RevMed PRISM: AUC (HCC1195_LUNG, NRAS p.Q61L): 0.7308
RMC-6236: RevMed PRISM: AUC (HCC1937_BREAST): 0.9056
RMC-6236: RevMed PRISM: AUC (HCSC1_CERVIX, NRAS p.G13R): 1
RMC-6236: RevMed PRISM: AUC (HDQP1_BREAST): 0.5485
RMC-6236: RevMed PRISM: AUC (HEYA8_OVARY, KRAS p.G12D): 0.6142
RMC-6236: RevMed PRISM: AUC (HT29_LARGE_INTESTINE): 0.9177
RMC-6236: RevMed PRISM: AUC (HT115_LARGE_INTESTINE): 0.7857
RMC-6236: RevMed PRISM: AUC (IGR39_SKIN): 0.916
RMC-6236: RevMed PRISM: AUC (JHH6_LIVER): 0.7876
RMC-6236: RevMed PRISM: AUC (JHOC5_OVARY): 0.7067
RMC-6236: RevMed PRISM: AUC (KE39_STOMACH): 0.7632
RMC-6236: RevMed PRISM: AUC (KE97_STOMACH): 0.8452
RMC-6236: RevMed PRISM: AUC (KKU100_BILIARY_TRACT, KRAS p.G12D): 0.4482
RMC-6236: RevMed PRISM: AUC (KKU213_BILIARY_TRACT, KRAS p.G13C): 0.6654
RMC-6236: RevMed PRISM: AUC (KLE_ENDOMETRIUM): 0.9884
RMC-6236: RevMed PRISM: AUC (KMS34_HAEMATOPOIETIC_AND_LYMPHOID_TISSUE): 0.7785
RMC-6236: RevMed PRISM: AUC (KOSC2CL343_UPPER_AERODIGESTIVE_TRACT): 0.6166
RMC-6236: RevMed PRISM: AUC (KP2_PANCREAS, KRAS p.G12R): 0.4026
Median AUC (PRISM) (KRAS^MUT cell lines): 0.57
RMC-6236: RevMed PRISM: AUC (KU1919_URINARY_TRACT, NRAS p.Q61R): 0.3992
RMC-6236: RevMed PRISM: AUC (KYSE30_OESOPHAGUS, HRAS p.Q61L): 0.6346
RMC-6236: RevMed PRISM: AUC (KYSE150_OESOPHAGUS): 0.7237
RMC-6236: RevMed PRISM: AUC (KYSE410_OESOPHAGUS, KRAS p.G12C): 0.5271
RMC-6236: RevMed PRISM: AUC (KYSE450_OESOPHAGUS): 0.5198
RMC-6236: RevMed PRISM: AUC (LI7_LIVER): 0.743
RMC-6236: RevMed PRISM: AUC (LOVO_LARGE_INTESTINE, KRAS p.G13D): 0.6638
RMC-6236: RevMed PRISM: AUC (LOXIMVI_SKIN): 0.876
RMC-6236: RevMed PRISM: AUC (LS411N_LARGE_INTESTINE): 1
